Assay results published in patent US9096547B2, “Sodium salt of 6-fluoro-3-hydroxy-2-pyrazine carboxamide” (Toyama Chemical Co., Ltd., priority 2010, dated 2015).

Key:
[1] = Stability (1): appearance after standing at 60° C. for 1 month; assay type: physicochemical; settings: stand still at 60° C. for 1 month
Procedure: The preparations of Examples 1, 7, 9, 10, 11, 12, 25, 28 and 29 were allowed to stand still at 60° C. for 1 month and then their appearance was observed.

[2] = Stability (2): appearance after irradiation by a D65 lamp; assay type: physicochemical; settings: irradiated (1,200,000 lx·hr) by a D65 lamp
Excerpt: The preparations of Examples 1, 10, 15, 16, 22 and Comparative Example 1 were irradiated (1,200,000 lx·hr) by a D65 lamp (FLR20S-D-EDL-D65/M) and then their appearance was observed.

NC(=O)c1nc(F)cnc1O.[Na] [Example 1, sodium salt of 6-fluoro-3-hydroxy-2-pyrazinecarboxamide]
appearance change [1]: appearance change was not observed
appearance change [2]: appearance change was not observed
